Source: patent US20090275655A1, “Pharmaceutical Gallium Compositions and Methods” (priority 2008, published 2009)

Test: intravenous infusion in a cystic fibrosis patient, concentration of ionic gallium in sputum, plasma and whole blood
Type: in vivo, human patient
Experimental: During one such treatment, this patient received an infusion of gallium citrate-nitrate over 5 days at a dose of 240 mg/day, or approximately 150 mg/m^2/day, and the concentration of ionic gallium in a deep-cough sputum specimen was then measured. The gallium concentration in the sputum was 3.2 μg/ml, or approximately 46 μmol/L, which is a concentration that is adequate to kill resistant Pseudomonas organisms in vivo. See Kaneko et al., J. Clin. Invest. 117:877-888 (2007).
Beginning about 1 month later, the same patient from Example 4 was given additional infusions of gallium citrate-nitrate at doses of 200 mg/m^2/day over 5 days, and the concentration of ionic gallium in deep-cough sputum specimens was again determined. […] The concentrations at days 5-11 are high, and even after cessation of treatment they remain levels that are believed to be therapeutic in vivo.

[1] = Treatment Number Two, 200 mg/m^2/d, end of infusion, Day 5 (verification repeat)

In the case of gallium citrate-nitrate, the “gallium concentration, Sputum” value (Treatment Number One, 150 mg/m^2/d, end of infusion, Day 5) is reported as 2.22 µg/mL, the “gallium concentration, Sputum” value (Treatment Number Two, 200 mg/m^2/d, end of infusion, Day 5) is reported as 2.13 µg/mL and the “gallium concentration, Whole Blood” value (Treatment Number Two, 200 mg/m^2/d, end of infusion, Day 5 20:00 h) is reported as 1.64 µg/mL. The “gallium concentration, Plasma” value [1] was 1.35 µg/mL, the “gallium concentration, Sputum” value [1] was 2.65 µg/mL and the “gallium concentration, Sputum” value (Treatment Number Two, Baseline (Time 0), one month after Treatment One) was 0.32 µg/mL. For the same substance, the “gallium concentration, Sputum” value (Treatment Number Two, Post-Infusion, Day 6) was 1.83 µg/mL, the “gallium concentration, Sputum” value (Treatment Number Two, Post-Infusion, Day 7) was 2.04 µg/mL and the “gallium concentration, Sputum” value (Treatment Number Two, Post-Infusion, Day 9) was 4.35 µg/mL. For the same substance, the “gallium concentration, Sputum” value (Treatment Number Two, Post-Infusion, Day 11) was 4.78 µg/mL and the “sputum levels exceed plasma concentrations” value (patient, following systemic (IV) administration) was “roughly 2 fold”.
